Results on three compounds are retold here after publication PMC3944805, “Reinterpreting the Mechanism of Inhibition of Mycobacterium tuberculosisD-Alanine:D-Alanine Ligase by D-Cycloserine” (Biochemistry, 2013).

Where two headings read alike, the source gives them in different places.

The target in data set [1] is T1, Mycobacterium tuberculosis Ddl (MtDdl) (Mycobacterium tuberculosis, UniProt P9WP31).
T1 construct: hexahistidine tag; made in house
Particulars: cited from earlier work.

The target of data set [2] is T2, Escherichia coli DdlB (EcDdl) (Escherichia coli, UniProt P07862). Details: hexahistidine tag (from pET28a+) (N); made in house; host or cells: E. coli BL21; method as in Zawadzke et al., 1991. Conditions: EcDdlB, previously published value in parentheses, ref Zawadzke et al., 1991, cited from earlier work.
Data set [3] has as its target T1, Mycobacterium tuberculosis Ddl (MtDdl). The data set is described as follows: Slow-onset inhibition of MtDdl by stopped-flow coupled enzyme time courses. The class given is biochemical. Conditions: for koff: read-out: k–2 (DCS dissociation rate constant). The procedure: (§1) Steady-state kinetics and equilibrium binding were performed as previously described.[4] Time courses for the measurement of slow-onset inhibition were collected on an SX20 stopped-flow spectrometer (Applied Photophysics) at 37 °C, using a 10 mm path-length cell. Data points were recorded every 0.1 s. Catalysis was detected by the same coupled enzyme mechanism as used previously for steady-state kinetic measurements.[4] All reaction mixtures contained 50 mM HEPES (pH 7.3), 10 mM MgCl2, 80 mM KCl, 3 mM ATP, 0.25 mM NADH, 1.5 mM PEP, and a 40 μL/mL pyruvate kinase/lactate dehydrogenase enzyme solution (PK-LDH; stock solution of 600–1000 units/mL PK and 900–1400 units/mL LDH). MtDdl was employed at concentrations from 60 to 290 nM and EcDdl at a final concentration of 30 nM. DCS and D-Ala concentrations were varied as required. Reaction components were sorted into two syringes, with rapid mixing of 60 μL from each starting each reaction. For all assays, both syringes contained HEPES, MgCl2, KCl, NADH, PEP, and PK-LDH. MtDdl and D-Ala were always stored in separate syringes. For analysis of slow-onset inhibition at the C-terminal D-Ala binding site (i.e., data for Figure 1), DCS and Mt/EcDdl were stored in separate reaction mixtures prior to the commencement of the reaction. For analysis of slow-onset inhibition at the N-terminal D-Ala site (i.e., data for Figure 2), MtDdl and DCS (with or without ATP) were stored in the same reaction mixture (for at least 4 min) prior to the commencement of the reaction.
(§2) Individual time course data were fit using eq 1 [drawing 1] 1 where [P]t is the product formed at time t, [E] is the total MtDdl concentration, vi is the initial rate, vf is the final (steady-state) rate, and kobs is the apparent rate constant for approach to the steady state.[7] Time courses were performed in triplicate and kobs values averaged for each DCS and D-Ala concentration tested. Secondary replots of kobs versus DCS concentration were fit using eq 2 [drawing 2] 2 where [I] is the DCS concentration, [S] is the D-Ala concentration, and k2 and k–2 are rate constants as described in Scheme 2. The Km value was that for the C-terminal site (4 mM), as previously reported.[4]

Data set [4] concerns MtDdl. The data set is described as follows: Theoretical calculation of dissociative t1/2 for MtDdl:ATP:D-Ala1:D-Ala2 complex. Also on record: species or system Mycobacterium tuberculosis. Particulars: theoretical calculations. The text has this:
Supporting Information to:
Reinterpreting the mechanism of inhibition of Mycobacterium tuberculosis D-Alanine:D-Alanine ligase by D-Cycloserine.
Gareth Prosser and Luiz Pedro S. de Carvalho.
Division of Mycobacterial Research, MRC National Institute for Medical Research, The Ridgeway, […]
Table S1. Steady-state kinetic parameters for MtDdl and EcDdl. […]
aReaction conditions for both enzymes were as previously reported.1 bValues for MtDdl taken from our previous work.1 cValues in parentheses are previously published values.2
Theoretical calculation of dissociative t1/2 for MtDdl:ATP:D-Ala1:D-Ala2 complex […]
k = diffusion-rate limited = 1 × 1010 M-1.s-1
Figure S1. Comparison of dissociative half-lives (t1/2) of MtDdl:ATP:D-Ala:DCS and MtDdl:ATP:D-Ala-D-Ala complexes. Half-life for DCS-containing complex was measured experimentally as described in the main paper. Half-life for D-Ala-only-containing complex was calculated theoretically as described […]
(1 picture or pasted object on this page, not shown here)

Data set [5] has as its target T2, Escherichia coli DdlB (EcDdl). Put plainly: Steady-state kinetics of EcDdl.
Method: (§3) Time courses for the measurement of slow-onset inhibition were collected on an SX20 stopped-flow spectrometer (Applied Photophysics) at 37 °C, using a 10 mm path-length cell. Data points were recorded every 0.1 s. Catalysis was detected by the same coupled enzyme mechanism as used previously for steady-state kinetic measurements.[4] All reaction mixtures contained 50 mM HEPES (pH 7.3), 10 mM MgCl2, 80 mM KCl, 3 mM ATP, 0.25 mM NADH, 1.5 mM PEP, and a 40 μL/mL pyruvate kinase/lactate dehydrogenase enzyme solution (PK-LDH; stock solution of 600–1000 units/mL PK and 900–1400 units/mL LDH). MtDdl was employed at concentrations from 60 to 290 nM and EcDdl at a final concentration of 30 nM. DCS and D-Ala concentrations were varied as required. Reaction components were sorted into two syringes, with rapid mixing of 60 μL from each starting each reaction. For all assays, both syringes contained HEPES, MgCl2, KCl, NADH, PEP, and PK-LDH. MtDdl and D-Ala were always stored in separate syringes. For analysis of slow-onset inhibition at the C-terminal D-Ala binding site (i.e., data for Figure 1), DCS and Mt/EcDdl were stored in separate reaction mixtures prior to the commencement of the reaction. […]
For data set [6] the target is unchanged. Put plainly: Slow-onset inhibition of EcDdl by stopped-flow coupled enzyme time courses. Also on record: hexahistidine tag (from pET28a+) (N); made in house; host or cells: E. coli BL21. The format is biochemical. The procedure: as §1, §2
The test system of data set [7] is C[C@@H](N)C(=O)O. The data set is described as follows: purified protein, by the assay type. Conditions: other: EcDdlB; pH 7.3; 37.0 °C.
Method: as §3
[8] abbreviates: MtDdl preincubated with ATP with DCS, MtDdl–ATP complex, 40 mM D-Ala, 3 mM ATP.
The mark [9] stands for this setting: MtDdl preincubated with ATP, C-terminal D-Ala site, averaged over 0.4 to 40 mM D-Ala, 37 °C, pH 7.3.
[10] abbreviates: EcDdl preincubated with ATP, only 0.75 mM D-Ala tested.

T1 sequence (P9WP31 whole entry): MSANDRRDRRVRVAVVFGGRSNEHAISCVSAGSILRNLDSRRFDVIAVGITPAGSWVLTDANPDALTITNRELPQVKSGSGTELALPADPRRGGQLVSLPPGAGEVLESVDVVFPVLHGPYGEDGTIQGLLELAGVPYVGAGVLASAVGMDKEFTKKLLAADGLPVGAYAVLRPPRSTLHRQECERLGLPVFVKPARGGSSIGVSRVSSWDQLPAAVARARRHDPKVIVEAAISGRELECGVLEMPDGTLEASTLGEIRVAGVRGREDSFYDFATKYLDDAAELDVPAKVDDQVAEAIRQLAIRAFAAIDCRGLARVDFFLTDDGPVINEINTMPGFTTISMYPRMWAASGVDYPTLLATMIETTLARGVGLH

As usually defined, the Km is the concentration of substrate that gives half-maximal velocity. `C[C@@H](N)C(=O)O` [D-Ala, D-alanine]: the Km is 4 mM in data set [1] (read-out: Km for the C-terminal site, value used in eq 2); 3.6 ± 0.6 mM in data set [1] (read-out: Km,D-Ala2, C-terminal site, previous work, ref Prosser and de Carvalho, 2013); 1.2 mM in data set [2] (read-out: Km,D-Ala2).

A word on the Ki: it is the dissociation constant of the complex between target and ligand, obtained from inhibition or displacement. `N[C@@H]1CONC1=O` [DCS, (R)-4-amino-1,2-oxazolidin-3-one]: the “t1/2 (dissociative half-life)” value in data set [3] (MtDdl preincubated with ATP with DCS, MtDdl–ATP complex) came to 25 s; in data set [3] (MtDdl preincubated with ATP, MtDdl:ATP:D-Ala:DCS complex), 48 s; in data set [6] (setting [10]), 5 s. Besides, the “k2 (DCS binding rate constant)” value was determined as 373 ± 11 M^–1 s^–1 in data set [3] (setting [8]), 888 ± 36 M^–1 s^–1 in data set [3] (setting [9]) and 2970 ± 360 M^–1 s^–1 in data set [6] (setting [10]). The koff in data set [3] (setting [8]) worked out at 0.028 ± 0.001 s⁻¹; in data set [3] (setting [9]), 0.014 ± 0.003 s⁻¹; in data set [6] (EcDdl preincubated with ATP, only 0.75 mM D-Ala tested, read-out: k–2 (DCS dissociation rate constant)), 0.13 ± 0.03 s⁻¹. In addition, the “DCS–MtDdl complex residence time longer than that for the D-Ala–MtDdl complex” value in data set [4] is on record as “up to 8 orders of magnitude”. In addition, the “stability by one-dimensional NMR” value (across all pHs tested over the time frame of the experiment) is listed as “stable”. Also, the “stability by one-dimensional and 13C HSQC NMR” value (in the presence and absence of enzyme (and other buffer components)) was “no spectral changes”. The Ki was 25 µM in data set [1] (MtDdl–ATP–D-Ala complex, previous work, read-out: Ki,DCS2); 15 µM in data set [1] (previous data, read-out: Ki,DCS1); 44 ± 10 µM in data set [5]; 27 µM in data set [2] (read-out: Ki,DCS2). For the same compound, the “fold faster rate of association of the enzyme–inhibitor complex (k2), EcDdl vs MtDdl” value in data set [6] (EcDdl compared with MtDdl) is reported as over 3 fold. Moreover, in data set [6] (EcDdl compared with MtDdl), the “fold faster rate of dissociation of the enzyme–inhibitor complex (k–2), EcDdl vs MtDdl” value worked out at 10 fold.

Consider “Escherichia coli DdlB (EcDdl) (Escherichia coli K-12)”, for which the Km in data set [7] stood at 0.8 ± 0.07 mM.
